In patent US20250221966A1, “RXFP1 AGONISTS” (BRISTOL-MYERS SQUIBB COMPANY, priority 2021, published 2025):
pEC50: −log10 of the molar value.

Molecular target: T1, human RXFP1 (Homo sapiens, UniProt Q9HBX9)
T1 construct: expressed in transfected cells
T1 sequence (Q9HBX9 1-757): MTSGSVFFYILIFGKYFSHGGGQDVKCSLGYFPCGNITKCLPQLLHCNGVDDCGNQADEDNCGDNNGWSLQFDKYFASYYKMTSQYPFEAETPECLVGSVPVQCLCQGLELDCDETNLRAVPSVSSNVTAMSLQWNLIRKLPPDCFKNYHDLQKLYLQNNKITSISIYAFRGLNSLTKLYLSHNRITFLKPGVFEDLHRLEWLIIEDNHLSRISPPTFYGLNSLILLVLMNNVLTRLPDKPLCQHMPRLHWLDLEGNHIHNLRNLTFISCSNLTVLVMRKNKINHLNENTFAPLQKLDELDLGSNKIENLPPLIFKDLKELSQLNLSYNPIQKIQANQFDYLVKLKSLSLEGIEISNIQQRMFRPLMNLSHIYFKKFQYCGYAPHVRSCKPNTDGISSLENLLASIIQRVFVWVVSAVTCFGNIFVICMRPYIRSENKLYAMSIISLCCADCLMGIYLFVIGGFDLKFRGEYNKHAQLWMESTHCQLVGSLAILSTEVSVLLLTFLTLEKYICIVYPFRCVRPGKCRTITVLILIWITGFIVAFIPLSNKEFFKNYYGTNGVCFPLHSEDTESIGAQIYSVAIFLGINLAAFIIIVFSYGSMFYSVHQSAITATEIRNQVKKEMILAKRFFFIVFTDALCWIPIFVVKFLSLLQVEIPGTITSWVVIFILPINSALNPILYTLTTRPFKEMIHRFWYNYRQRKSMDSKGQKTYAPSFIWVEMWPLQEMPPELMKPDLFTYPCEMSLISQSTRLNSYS
Test: RXFP1 cAMP assay (hRXFP1 HEK293 cAMP assay, HTRF)
Type: cell-based
Conditions: HEK293 cells stably expressing human RXFP1, 30 min at room temperature, read-out: cAMP hRXFP1 HEK293 Assay EC50
Method in brief: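 Potency and activity come from a four-parameter logistic fit of cAMP against compound concentration, tested from 0.010 nM up to 50 μM. The assay uses HEK293 cells stably expressing human RXFP1, incubated 30 min at ambient temperature with phosphodiesterase inhibitor IBMX present.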

pEC50 | SMILES
8.48 | COc1ccc(C2=NOC3COCC23)cc1C(=O)N[C@H]1[C@@H](C(=O)N[C@H](C)C2(C)CCC2)[C@H]2CC[C@@H]1/C2=C\C1CC1 (stereo partly shown) [compound 769]
6.66 | COCc1ccccc1CNC(=O)[C@@H]1[C@H](NC(=O)c2cc(C3=NOC4COCC34)ccc2OC)[C@@H]2CC[C@H]1/C2=C/C1CC1 (stereo partly shown) [compound 641]
6.32 | COc1cc(F)c(F)cc1C(=O)N[C@@H]1C2CCC(/C2=C/c2ccccn2)[C@@H]1C(=O)Nc1ccc(F)c(C(F)(F)F)c1 (stereo partly shown) [compound 137]
8.92 | COc1ccc(C2=NOC3C4CC(C(O)C4O)C23)cc1C(=O)N[C@H]1[C@@H](C(=O)Nc2ccc(F)c(C(F)(F)F)c2)[C@H]2CC[C@@H]1/C2=C\C1CC1 (single isomer, unassigned) [Example 448]
7.32 | COc1ccc(C2=NOC3CC(O)CC23)cc1C(=O)N[C@H]1[C@@H](C(=O)Nc2ccc(F)c(C(F)(F)F)c2)[C@H]2CC[C@@H]1/C2=C\C1CCC1 (mixture of isomers) [Example 406, (1R,2S,3R,4R,Z)-7-(cyclobutylmethylene)-N-(4-fluoro-3-(trifluoromethyl)phenyl)-3-(5-(5-hydroxy-3a,5,6,6a-tetrahydro-4H-cyclopenta[d]isoxazol-3-yl)-2-methoxybenzamido)bicyclo[2.2.1]heptane-2-carboxamide]
8.89 | COc1ccc(C2=NOC3CC(C)(O)CC23)cc1C(=O)N[C@H]1[C@@H](C(=O)Nc2ccc(F)c(C(F)(F)F)c2)[C@H]2CC[C@@H]1/C2=C\C1CC1 (stereo partly shown) [compound 858]
6.04 | COc1cc(F)c(F)cc1C(=O)N[C@@H]1C2CCC(/C2=C/c2cc(C)cc(C)c2)[C@@H]1C(=O)Nc1ccc(F)c(C(F)(F)F)c1 (stereo partly shown) [compound 60]
8.24 | COc1ccc(-c2cc([C@H](OC(=O)NC3CCC3)C(F)(F)F)ccc2F)cc1C(=O)N[C@@H]1C2CCC(/C2=C/C2CCC2)[C@@H]1C(=O)Nc1ccc(F)c(C(F)(F)F)c1 (stereo partly shown) [compound 924]
6.44 | COc1ccc(C2=NOC3CCCC23)cc1C(=O)N[C@H]1[C@@H](C(=O)Nc2ccc(F)c(C(F)(F)F)c2)[C@H]2CC[C@@H]1/C2=C\C1CC1 (single isomer, unassigned) [Example 441]
6.07 | COc1ccc(-c2cc(C(=O)O)ccc2F)cc1C(=O)N[C@@H]1C2CCC(/C2=C/C(=O)N(C)C)[C@@H]1C(=O)Nc1ccc(F)c(C(F)(F)F)c1 (stereo partly shown) [Example 323]
7.96 | CNC(=O)c1ccc(F)c(-c2ccc(OC)c(C(=O)N[C@@H]3C4CCC(/C4=C/C4CC4)[C@@H]3C(=O)Nc3ccc(F)c(C(F)(F)F)c3)c2)c1 (stereo partly shown) [Example 166]
8.60 | COc1c(F)cc(C2=NOC(C)(CO)C2)cc1C(=O)N[C@H]1[C@@H](C(=O)N[C@H](C)C2(C)CC2)[C@H]2CC[C@@H]1/C2=C\C1CC1 (stereo partly shown) [compound 744]
8.52 | COc1ccc(-c2cc(C(C)OC(=O)Nc3ccc(F)cc3)ccc2F)cc1C(=O)N[C@@H]1C2CCC(/C2=C/C2CC2)[C@@H]1C(=O)Nc1ccc(F)c(C(F)(F)F)c1 (stereo partly shown) [compound 226]
8.59 | COc1ccc(C2=NOC3(CO)CCC23CO)cc1C(=O)N[C@H]1[C@@H](C(=O)Nc2ccc(F)c(C(F)(F)F)c2)[C@H]2CC[C@@H]1/C2=C\C1CC1 (single isomer, unassigned) [Example 461]
9.40 | COc1ccc(-c2cc([C@H](OC(=O)NC3CC3)C(F)(F)F)ccc2F)cc1C(=O)N[C@H]1[C@@H](C(=O)Nc2ccc(F)c(C(F)(F)F)c2)[C@H]2CC[C@@H]1/C2=C\C1CCCC1 [compound 927]
7.15 | COc1ccc(C2=NOC(C(=O)OC(C)(C)C)C2)cc1C(=O)N[C@@H]1C2CCC(/C2=C/C2CC2)[C@@H]1C(=O)Nc1ccc(F)c(C(F)(F)F)c1 (stereo partly shown) [compound 386]
7.43 | CCC(CC)CNC(=O)[C@@H]1[C@H](NC(=O)c2cc(C3=NOC4COCC34)ccc2OC)[C@@H]2CC[C@H]1/C2=C/C1CC1 (stereo partly shown) [compound 553]
6.35 | CN(C)c1c(Cl)cc(C2=NOC3COCC23)cc1C(=O)N[C@H]1[C@@H](C(=O)Nc2ccc(F)c(C(F)(F)F)c2)[C@H]2CC[C@@H]1/C2=C\C(F)(F)F (single isomer, unassigned) [compound 670]
7.78 | COc1ccc(C2=NOC3COCC23)c(F)c1C(=O)N[C@H]1[C@@H](C(=O)Nc2ccc(F)c(C(F)(F)F)c2)[C@H]2CC[C@@H]1/C2=C\C1CC1 (single isomer, unassigned) [compound 513]
8.70 | COc1ccc(C2=NOC3CC(CO)CC23)cc1C(=O)N[C@@H]1C2CCC(/C2=C/C2CC2)[C@@H]1C(=O)Nc1ccc(F)c(C(F)(F)F)c1 (single isomer, unassigned) [compound 433]

pEC50 | SMILES
8.40 | COc1ccc(C2=NOC3CC(CO)CC23)cc1C(=O)N[C@H]1[C@@H](C(=O)Nc2ccc(F)c(C(F)(F)F)c2)[C@H]2CC[C@@H]1/C2=C\c1cnc(C)s1 (stereo partly shown) [compound 804]
8.62 | COc1ccc(-c2cccc3c2CC(=O)N3)cc1C(=O)N[C@H]1[C@@H](C(=O)Nc2ccc(F)c(C(F)(F)F)c2)[C@H]2CC[C@@H]1/C2=C\C1CC1 [compound 890]
6.38 | COc1ccc(-c2cccnc2F)cc1C(=O)N[C@H]1[C@@H](C(=O)Nc2ccc(F)c(C(F)(F)F)c2)[C@H]2CC[C@@H]1/C2=C/c1ccccc1 [compound 95]
6.77 | CCOC(=O)C(NC(=O)C1CCOCC1)c1cnn(-c2ccc(OC)c(C(=O)N[C@@H]3C4CCC(/C4=C/C(F)(F)F)[C@@H]3C(=O)Nc3ccc(F)c(C(F)(F)F)c3)c2)c1 (stereo partly shown) [Example 346]
8.42 | COc1c(F)cc(C2=NOC3CC(O)CC23)cc1C(=O)N[C@H]1[C@@H](C(=O)Nc2ccc(F)c(C(F)(F)F)c2)[C@H]2CC[C@@H]1/C2=C\C1CCCC1 (stereo partly shown) [compound 868]
5.78 | COc1ccc([C@@]2(O)CO[C@@H]3[C@@H](O)CO[C@@H]32)cc1C(=O)N[C@H]1[C@@H](C(=O)Nc2ccc(F)c(C(F)(F)F)c2)[C@H]2CC[C@@H]1/C2=C\C(F)(F)F [compound 713]
6.70 | COc1cc(F)c(F)cc1C(=O)N[C@@H]1C2CCC(/C2=C/c2cccc(Cc3ccccc3)c2)[C@@H]1C(=O)Nc1ccc(F)c(C(F)(F)F)c1 (stereo partly shown) [compound 49]
6.79 | COc1ccc(C2=NOC3COCC23)cc1C(=O)N[C@H]1[C@@H](C(=O)NCC2CC(F)(F)C2)[C@H]2CC[C@@H]1/C2=C\C1CC1 (stereo partly shown) [compound 621]
7.35 | COc1ccc(-c2cc(C(N)=O)on2)cc1C(=O)N[C@@H]1C2CCC(/C2=C/C2CC2)[C@@H]1C(=O)Nc1ccc(F)c(C(F)(F)F)c1 (stereo partly shown) [compound 426]
7.29 | COCCNC(=O)c1ccc(-c2ccc(OC)c(C(=O)N[C@@H]3C4CCC(/C4=C/c4ccccc4)[C@@H]3C(=O)Nc3ccc(F)c(C(F)(F)F)c3)c2)c(F)c1 (stereo partly shown) [compound 197]
7.40 | CNC(=O)c1ccc(F)c(-c2ccc(OC)c(C(=O)N[C@@H]3C4CCC(/C4=C/c4cnoc4)[C@@H]3C(=O)Nc3ccc(F)c(C(F)(F)F)c3)c2)c1 (stereo partly shown) [compound 165]
7.60 | COC(=O)NC(C(=O)O)c1ccc(F)c(-c2ccc(OC)c(C(=O)N[C@@H]3C4CCC(/C4=C/C(F)(F)F)[C@@H]3C(=O)Nc3ccc(F)c(C(F)(F)F)c3)c2)c1 (stereo partly shown) [compound 186]
6.30 | O=C(N[C@H]1[C@@H](C(=O)Nc2ccc(F)c(C(F)(F)F)c2)[C@H]2CC[C@@H]1/C2=C\C1CC1)c1cc(C2=NOC3COCC23)ccc1F (single isomer, unassigned) [compound 677]
6.99 | COc1ccc(C2=NOC3COCC23)cc1C(=O)N[C@H]1[C@@H](C(=O)NCC2CCC2)[C@H]2CC[C@@H]1/C2=C\C1CC1 (stereo partly shown) [compound 597]
6.75 | COc1ccc(C2=NOC3COCC23)cc1C(=O)N[C@H]1[C@@H](C(=O)NC2CCC(C(F)(F)F)C2)[C@H]2CC[C@@H]1/C2=C\C1CC1 (single isomer, unassigned) [Example 629]
7.76 | O=C(N[C@H]1[C@@H](C(=O)Nc2ccc(F)c(C(F)(F)F)c2)[C@H]2CC[C@@H]1/C2=C\C1CC1)c1cc(C2=NOC3COCC23)ccc1F (single isomer, unassigned) [compound 514]
7.94 | COc1ccc(C2=NOC(CCO)C2CCO)cc1C(=O)N[C@H]1[C@@H](C(=O)Nc2ccc(F)c(C(F)(F)F)c2)[C@H]2CC[C@@H]1/C2=C\C1CC1 (stereo partly shown) [compound 501]
8.52 | COc1ccc(-c2cc(S(C)(=O)=O)ccc2F)cc1C(=O)N[C@H]1[C@@H](C(=O)Nc2ccc(F)c(C(F)(F)F)c2)[C@H]2CC[C@@H]1/C2=C\C1CC1 [compound 899]
8.47 | COc1cc(C)c(C2=NOC3CC(CO)CC23)cc1C(=O)N[C@H]1[C@@H](C(=O)Nc2ccc(F)c(C(F)(F)F)c2)[C@H]2CC[C@@H]1/C2=C\C1CC1 (stereo partly shown) [compound 740]
6.66 | COc1ccc(C2=NOC3(CCCC3)C2)cc1C(=O)N[C@H]1[C@@H](C(=O)Nc2ccc(F)c(C(F)(F)F)c2)[C@H]2CC[C@@H]1/C2=C\C1CC1 [compound 642]
